Test results published in ChEMBL document CHEMBL5523729, “Development of Degraders of Cyclin-Dependent Kinases 4 and 6 Based on Rational Drug Design” (J Med Chem, 2024).
Calls of active or inactive are those of the source. The rule behind the calls is not given here.

Tests used:
[1] = target: T1, Protein cereblon/Cyclin-dependent kinase 4 (Homo sapiens, UniProt P11802+Q96SW2); assay: PROTAC activity at CDK4/CRBN in human Jurkat cells assessed as maximal protein degradation by Western blot analysis relative to control; format: cell-based
Target sequence in this assay (P11802 2-303 limits assumed): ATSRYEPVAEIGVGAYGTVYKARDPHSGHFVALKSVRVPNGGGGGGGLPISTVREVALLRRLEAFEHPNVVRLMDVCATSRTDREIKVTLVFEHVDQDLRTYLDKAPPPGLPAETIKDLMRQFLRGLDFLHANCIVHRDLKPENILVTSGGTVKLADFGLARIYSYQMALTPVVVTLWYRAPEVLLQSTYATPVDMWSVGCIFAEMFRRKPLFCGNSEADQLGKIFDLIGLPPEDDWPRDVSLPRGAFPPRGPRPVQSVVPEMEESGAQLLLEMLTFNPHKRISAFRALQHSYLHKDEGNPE
Target sequence in this assay (Q96SW2 whole entry partner): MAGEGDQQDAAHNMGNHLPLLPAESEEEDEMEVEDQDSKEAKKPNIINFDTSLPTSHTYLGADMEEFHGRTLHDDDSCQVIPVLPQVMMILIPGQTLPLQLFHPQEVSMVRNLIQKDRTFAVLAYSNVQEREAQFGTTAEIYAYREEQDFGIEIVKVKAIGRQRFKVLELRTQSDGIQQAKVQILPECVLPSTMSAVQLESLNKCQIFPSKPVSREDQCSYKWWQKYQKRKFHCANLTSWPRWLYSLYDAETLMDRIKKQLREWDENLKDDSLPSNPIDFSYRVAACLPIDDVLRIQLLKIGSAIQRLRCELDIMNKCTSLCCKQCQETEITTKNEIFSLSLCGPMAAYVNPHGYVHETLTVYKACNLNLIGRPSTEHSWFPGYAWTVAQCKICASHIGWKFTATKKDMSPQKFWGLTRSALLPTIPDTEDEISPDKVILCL

[2] = target: T2, Protein cereblon/Cyclin-dependent kinase 6 (Homo sapiens, UniProt Q00534+Q96SW2); assay: PROTAC activity at CDK6/CRBN in human Jurkat cells assessed as protein degradation by Western blot analysis; format: cell-based
Target sequence in this assay (Q00534 whole entry): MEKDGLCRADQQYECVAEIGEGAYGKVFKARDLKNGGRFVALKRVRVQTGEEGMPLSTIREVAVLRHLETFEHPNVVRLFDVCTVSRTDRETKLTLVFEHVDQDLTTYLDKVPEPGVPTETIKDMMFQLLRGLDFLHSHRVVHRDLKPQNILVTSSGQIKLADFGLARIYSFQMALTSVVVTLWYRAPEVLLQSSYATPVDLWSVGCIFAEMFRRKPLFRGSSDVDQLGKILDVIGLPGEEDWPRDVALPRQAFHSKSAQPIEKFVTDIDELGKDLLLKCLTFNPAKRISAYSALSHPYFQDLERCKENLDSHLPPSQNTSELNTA
Target sequence in this assay (Q96SW2 whole entry): as the sequence (Q96SW2 whole entry partner) above

[3] = target: T2, Protein cereblon/Cyclin-dependent kinase 6; assay: PROTAC activity at CDK6/CRBN in human Jurkat cells assessed as maximal protein degradation by Western blot analysis relative to control; format: cell-based
Target sequence in this assay (Q00534 whole entry, looked up): as the sequence (Q00534 whole entry) above
Target sequence in this assay (Q96SW2 whole entry, looked up): as the sequence (Q96SW2 whole entry partner) above

[4] = target: T1, Protein cereblon/Cyclin-dependent kinase 4; assay: PROTAC activity at CDK4/CRBN in human Jurkat cells assessed as protein degradation by Western blot analysis; format: cell-based
Target sequence in this assay (P11802 whole entry): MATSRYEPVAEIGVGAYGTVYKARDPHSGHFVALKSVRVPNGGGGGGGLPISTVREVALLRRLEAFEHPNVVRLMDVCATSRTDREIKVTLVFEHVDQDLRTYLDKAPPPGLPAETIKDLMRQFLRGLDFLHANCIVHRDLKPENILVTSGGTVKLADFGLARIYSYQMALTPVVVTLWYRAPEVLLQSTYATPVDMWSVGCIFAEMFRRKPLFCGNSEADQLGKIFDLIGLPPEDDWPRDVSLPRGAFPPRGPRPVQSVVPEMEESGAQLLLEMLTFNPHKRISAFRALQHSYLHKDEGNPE
Target sequence in this assay (Q96SW2 whole entry): as the sequence (Q96SW2 whole entry partner) above

[5] = test system: Jurkat; assay: Anti-proliferative activity against human Jurkat cells assessed as cell growth inhibition measured after 72 hrs by CCK8 assay; format: functional, cell-based
[6] = test system: Jurkat; assay: Anti-tumor activity against human Jurkat cells assessed as suppression of p-RB (Ser780) at 1 uM by Western blot analysis; format: functional, cell-based
[7] = target: T2, Protein cereblon/Cyclin-dependent kinase 6; assay: PROTAC activity at CDK6/CRBN in human Jurkat cells assessed as protein degradation at 1 to 1000 nM by Western blot analysis; format: cell-based; conditions: dose 1-1000 nM, time 3-24 hrs, TDE = time-dependent effect
Target sequence in this assay (Q00534 whole entry, looked up): as the sequence (Q00534 whole entry) above
Target sequence in this assay (Q96SW2 whole entry, looked up): as the sequence (Q96SW2 whole entry partner) above

[8] = target: T1, Protein cereblon/Cyclin-dependent kinase 4; assay: PROTAC activity at CDK4/CRBN in human Jurkat cells assessed as protein degradation after 3 to 24 hrs by Western blot analysis; format: cell-based; conditions: dose 1-1000 nM, time 3-24 hrs
Target sequence in this assay (P11802 2-303 limits assumed): as the sequence (P11802 2-303 limits assumed) above
Target sequence in this assay (Q96SW2 whole entry partner): as the sequence (Q96SW2 whole entry partner) above

[9] = target: T1, Protein cereblon/Cyclin-dependent kinase 4; assay: PROTAC activity at CDK4/CRBN in human Jurkat cells assessed as protein degradation at 1 uM after 12 hrs by Western blot analysis; format: cell-based
Target sequence in this assay (P11802 2-303 limits assumed): as the sequence (P11802 2-303 limits assumed) above
Target sequence in this assay (Q96SW2 whole entry partner): as the sequence (Q96SW2 whole entry partner) above

[10] = target: T1, Protein cereblon/Cyclin-dependent kinase 4; assay: PROTAC activity at CDK4/CRBN in human Jurkat cells assessed as protein degradation at 1 to 1000 nM by Western blot analysis; format: cell-based; conditions: dose 1-1000 nM, time 3-24 hrs, TDE = time-dependent effect
Target sequence in this assay (P11802 2-303 limits assumed): as the sequence (P11802 2-303 limits assumed) above
Target sequence in this assay (Q96SW2 whole entry partner): as the sequence (Q96SW2 whole entry partner) above

[11] = target: T2, Protein cereblon/Cyclin-dependent kinase 6; assay: PROTAC activity at CDK6/CRBN in human Jurkat cells assessed as protein degradation after 3 to 24 hrs by Western blot analysis; format: cell-based; conditions: dose 1-1000 nM, time 3-24 hrs
Target sequence in this assay (Q00534 whole entry, looked up): as the sequence (Q00534 whole entry) above
Target sequence in this assay (Q96SW2 whole entry, looked up): as the sequence (Q96SW2 whole entry partner) above

[12] = target: T2, Protein cereblon/Cyclin-dependent kinase 6; assay: PROTAC activity at CDK6/CRBN in human Jurkat cells assessed as protein degradation at 1 uM after 12 hrs by Western blot analysis; format: cell-based
Target sequence in this assay (Q00534 whole entry, looked up): as the sequence (Q00534 whole entry) above
Target sequence in this assay (Q96SW2 whole entry, looked up): as the sequence (Q96SW2 whole entry partner) above

[13] = test system: Jurkat; assay: Anti-tumor activity against human Jurkat cells assessed as increase in cleaved PARP level by Western blot analysis; format: functional, cell-based; conditions: dose 1-1000 nM
[14] = target: Protein cereblon/Cyclin-dependent kinase 5 (Homo sapiens) (UniProt Q00535+Q96SW2); assay: PROTAC activity at CDK5/CRBN in human Jurkat cells assessed as protein degradation at 1 uM measured after 24 hrs by Western blot analysis; format: cell-based
Sequence of Protein cereblon/Cyclin-dependent kinase 5 (Homo sapiens) (Q00535 whole entry, looked up): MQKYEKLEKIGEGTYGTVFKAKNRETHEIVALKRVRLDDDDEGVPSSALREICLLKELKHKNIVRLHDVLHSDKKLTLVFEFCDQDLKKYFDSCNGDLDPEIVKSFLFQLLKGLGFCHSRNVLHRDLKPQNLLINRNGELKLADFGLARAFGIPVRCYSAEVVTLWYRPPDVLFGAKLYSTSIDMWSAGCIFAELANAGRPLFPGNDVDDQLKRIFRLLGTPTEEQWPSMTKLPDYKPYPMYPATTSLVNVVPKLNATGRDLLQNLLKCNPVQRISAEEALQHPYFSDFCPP
Sequence of Protein cereblon/Cyclin-dependent kinase 5 (Homo sapiens) (Q96SW2 whole entry, looked up): as the sequence (Q96SW2 whole entry partner) above

[15] = target: Protein cereblon/Cyclin-dependent kinase 8 (Homo sapiens) (UniProt P49336+Q96SW2); assay: PROTAC activity at CDK8/CRBN in human Jurkat cells assessed as protein degradation at 1 uM measured after 24 hrs by Western blot analysis; format: cell-based
[16] = target: Protein cereblon/Cyclin-dependent kinase 2 (Homo sapiens) (UniProt P24941+Q96SW2); assay: PROTAC activity at CDK2/CRBN in human Jurkat cells assessed as protein degradation at 1 uM measured after 24 hrs by Western blot analysis; format: cell-based
[17] = test system: Jurkat; assay: Induction of apoptosis in human Jurkat cells assessed as apoptotic cells measured after 24 hrs by Annexin V-FITC/PI staining based analysis; format: functional, cell-based; conditions: dose 0.1-1 µM
[18] = test system: Jurkat; assay: Anti-tumor activity against human Jurkat cells assessed as increase in cleaved caspase-3 level by Western blot analysis; format: functional, cell-based; conditions: dose 1-1000 nM
[19] = target: Protein cereblon/Cyclin-dependent kinase 1 (Homo sapiens) (UniProt P06493+Q96SW2); assay: PROTAC activity at CDK1/CRBN in human Jurkat cells assessed as protein degradation at 1 uM measured after 24 hrs by Western blot analysis; format: cell-based
[20] = target: Protein cereblon/Cyclin-dependent kinase 7 (Homo sapiens) (UniProt P50613+Q96SW2); assay: PROTAC activity at CDK7/CRBN in human Jurkat cells assessed as protein degradation at 1 uM measured after 24 hrs by Western blot analysis; format: cell-based
[21] = test system: Jurkat; assay: Cell cycle arrest in human Jurkat cells assessed as accumulation of cells at G1 phase measured after 24 hrs by flow cytometry; format: functional, cell-based; conditions: dose 0.1-1 µM
[22] = target: T1, Protein cereblon/Cyclin-dependent kinase 4; assay: PROTAC activity at CDK4/CRBN in human Jurkat cells assessed as protein degradation at 1 uM measured after 24 hrs by Western blot analysis; format: cell-based
Target sequence in this assay (P11802 2-303 limits assumed): as the sequence (P11802 2-303 limits assumed) above
Target sequence in this assay (Q96SW2 whole entry partner): as the sequence (Q96SW2 whole entry partner) above

[23] = target: Cyclin-dependent kinase 6 (Homo sapiens, UniProt Q00534); assay: Inhibition of CDK6 (unknown origin)
Sequence of Cyclin-dependent kinase 6 (Q00534 whole entry): as the sequence (Q00534 whole entry) above

[24] = target: Cyclin-dependent kinase 4 (Homo sapiens, UniProt P11802); assay: Inhibition of CDK4 (unknown origin)

| Compound | Emax [1] | DC50 [2] | Emax [3] | DC50 [4] | further results |
| --- | --- | --- | --- | --- | --- |
| O=C1CCC(N2C(=O)c3cccc(NCCOCCN4CCN(c5ccc(Nc6ncc7ncc(=O)n(C8CCCC8)c7n6)cc5)CC4)c3C2=O)C(=O)N1 (configuration not stated) | 60% | 93 nM | 91% | 162 nM | – |
| CC(=O)c1c(C)c2cnc(Nc3ccc(N4CCNCC4)cn3)nc2n(C2CCCC2)c1=O [PALBOCICLIB] | – | – | – | – | IC50 [5]: 1500 nM |
| O=C(CN1CCN(c2ccc(Nc3ncc4ncc(=O)n(C5CCCC5)c4n3)cc2)CC1)NCCCCNc1cccc2c1C(=O)N(C1CCC(=O)NC1=O)C2=O (configuration not stated) | 14% | > 1000 nM | 40% | > 1000 nM | – |
| O=C1CCC(N2C(=O)c3cccc(NC(=O)CCCCCCC(=O)N4CCN(c5ccc(Nc6ncc7ncc(=O)n(C8CCCC8)c7n6)cc5)CC4)c3C2=O)C(=O)N1 (configuration not stated) | 60% | 43.3 nM | 92% | 434 nM | – |
| O=c1cnc2cnc(Nc3ccc(N4CCNCC4)cc3)nc2n1C1CCCC1 | – | – | – | – | IC50 [23]: 88 nM; IC50 [24]: 7.7 nM; IC50 [5]: 1470 nM |
| O=C1CCC(N2C(=O)c3cccc(NC(=O)CCCCCN4CCN(c5ccc(Nc6ncc7ncc(=O)n(C8CCCC8)c7n6)cc5)CC4)c3C2=O)C(=O)N1 (configuration not stated) | 95% | 58 nM | 85% | 14.9 nM | – |

More lines, main results first:

| Emax [1] | DC50 [2] | Emax [3] | DC50 [4] | Compound | further results |
| --- | --- | --- | --- | --- | --- |
| 42% | 16.3 nM | 95% | > 1000 nM | O=C1CCC(N2C(=O)c3cccc(NC(=O)CCCCCn4cc(CN5CCN(c6ccc(Nc7ncc8ncc(=O)n(C9CCCC9)c8n7)cc6)CC5)nn4)c3C2=O)C(=O)N1 (configuration not stated) | – |
| 100% | 2.5 nM | 96% | 10.5 nM | O=C(CCCCN1CCN(c2ccc(Nc3ncc4ncc(=O)n(C5CCCC5)c4n3)cc2)CC1)NCCNc1cccc2c1C(=O)N(C1CCC(=O)NC1=O)C2=O (configuration not stated) | Activity [6]: Active; Activity [7]: Tde; Activity [8]: Dose-Dependent Effect; Activity [9]: 100%; Activity [10]: Tde; Activity [11]: Dose-Dependent Effect; Activity [12]: 100%; Activity [13]: Dose-Dependent Effect; Activity [14]: inactive; Activity [15]: inactive; Activity [16]: inactive; IC50 [5]: 183 nM; Activity [17]: Dose-Dependent Effect; Activity [18]: Dose-Dependent Effect; Activity [19]: inactive; Activity [20]: inactive; Activity [21]: Dose-Dependent Effect; Activity [22]: inactive |
| 41% | 6.6 nM | 95% | > 1000 nM | O=C1CCC(N2C(=O)c3cccc(NC(=O)CCCCCCN4CCN(c5ccc(Nc6ncc7ncc(=O)n(C8CCCC8)c7n6)cc5)CC4)c3C2=O)C(=O)N1 (configuration not stated) | – |
| 53% | 5.3 nM | 94% | 557 nM | O=C1CCC(N2C(=O)c3cccc(NCCOCCOCCN4CCN(c5ccc(Nc6ncc7ncc(=O)n(C8CCCC8)c7n6)cc5)CC4)c3C2=O)C(=O)N1 (configuration not stated) | – |
| 68% | 2.3 nM | 90% | 138 nM | O=C1CCC(N2C(=O)c3ccc(N4CCN(CC5CCN(C(=O)CN6CCN(c7ccc(Nc8ncc9ncc(=O)n(C%10CCCC%10)c9n8)cc7)CC6)CC5)CC4)cc3C2=O)C(=O)N1 (configuration not stated) | – |
| 75% | 3.9 nM | 86% | 9.8 nM | O=C1CCC(N2C(=O)c3ccc(N4CCN(C(=O)CN5CCN(c6ccc(Nc7ncc8ncc(=O)n(C9CCCC9)c8n7)cc6)CC5)CC4)cc3C2=O)C(=O)N1 (configuration not stated) | – |
